From patent US20200109114A1, “SOLID STATE FORMS OF N-[2-[(I S)-1 -(3-ETHOXY-4-METHOXYPHENYL)-2-(METHYL SULFONYL)ETHYL]-2,3-DIHYDRO-1,3-DIOXO-L H-ISOINDOL-4-YL]ACETAMIDE AND PROCESS FOR PREPARATION THEREOF” (MSN LABORATORIES PRIVATE LIMITED, R&D CENTER, priority 2016, published 2020)

Legend:
[1] = Hygroscopicity of crystalline form-M; type: physicochemical
From the text: The crystalline form-M of compound of formula-1 of the present invention is non-hygroscopic in nature which is highly advantageous for the formulators.

[2] = Solid state stability of crystalline form-M at various conditions (stress, UV light, thermal, humidity); type: physicochemical
Method: The crystalline form-M of the present invention is stable at various conditions viz.,
a) Stress (10 ton pressure, 3 min) b) UV light (254 nm, 24 hrs) c) Thermal (60° C., 24 hrs) d) Hygroscopicity (75% RH, 24 hrs))

hygroscopic nature [1]: non-hygroscopic
stability under hygroscopicity condition ([2]; Hygroscopicity (75% RH, 24 hrs)): stable
stability under stress ([2]; Stress (10 ton pressure, 3 min)): stable
thermal stability ([2]; Thermal (60° C., 24 hrs)): stable
stability under UV light ([2]; UV light (254 nm, 24 hrs)): stable
SMILES: CCOc1cc([C@@H](CS(C)(=O)=O)N2C(=O)c3cccc(NC(C)=O)c3C2=O)ccc1OC [crystalline form-M, N-[2-[(1S)-1-(3-ethoxy-4-methoxyphenyl)-2-(methylsulfonyl)ethyl]-2,3-dihydro-1,3-dioxo-1H-isoindol-4-yl]acetamide]
